This is an account of results in US20130344026A1, “Dimeric Smac Mimetics” (priority 2009, published 2013).

By IC50 is commonly meant the midpoint of a concentration-inhibition curve.

*1 amine or outer side, *2 acyl side, *3 side chain or, on linkers, in order; H or OH if unused. Where a SMILES comes first, the peptide text is derived from it. Bridges are numbered along the chain shown (N, C = ends). Roman numbers before positions name the chains, in order. [ ]: non-standard residue; d: D form. Piperazine(1,4-diyl) = C1CN([*:2])CCN1[*:1]; Chg = N[C@H](C(=O)O)C1CCCCC1; Tle = CC(C)(C)[C@H](N)C(=O)O; NMeA = CN[C@@H](C)C(=O)O

One assay deals with HCC461. Briefly: cell viability assay in HCC461, compound alone. It is filed as cell-based. Particulars: HCC461, HCC461; Tables 6-9; read-out: IC50 (μM) in cell viability assay in HCC461.
As to `CCC[C@H](NC(=O)[C@H](C)NC)C(=O)N1C[C@@H](NC(=O)c2cccc(C(=O)N[C@H]3C[C@@H](C(=O)N[C@@H]4CCCc5ccccc54)N(C(=O)[C@@H](NC(=O)[C@H](C)NC)C(C)(C)C)C3)c2)C[C@H]1C(=O)NC(C)(C)C` [Compound 156], the IC50 was found to be 0.083 µM.

In the case of `CN[C@@H](C)C(=O)NC(C(=O)N1C[C@@H](NC(=O)c2cccc(C(=O)N[C@H]3C[C@@H](C(=O)N[C@H](C)c4ccccc4)N(C(=O)[C@H](CCC(=O)OC)NC(=O)[C@H](CO)NC)C3)c2)CC1C(=O)N[C@@H]1CCCc2ccccc21)C(C)(C)C` (stereo partly shown) [Compound 154], the IC50 was 3.6 µM.

Turning to `CN[C@@H](C)C(=O)N[C@H](C(=O)N1CC[C@H](NC(=O)c2cccc(C(=O)N[C@H]3C[C@@H](C(=O)N[C@@H]4CCCc5ccccc54)N(C(=O)[C@@H](NC(=O)[C@H](C)NC)C(C)(C)C)C3)c2)C1)C(C)(C)C` [Compound 131], the IC50 was determined as 0.642 µM. On the same count and under the same terms, to `CN[C@@H](C)C(=O)NC(C(=O)N1C[C@@H](NC(=O)c2cccc(C(=O)N[C@H]3C[C@@H](C(=O)N[C@H](C)c4ccccc4)N(C(=O)[C@H](CCC(=O)OC)NC(=O)[C@@H](N)CO)C3)c2)CC1C(=O)N[C@@H]1CCCc2ccccc21)C(C)(C)C` (stereo partly shown) [Compound 153] belongs 27.6 µM.

`CN[C@@H](C)C(=O)N[C@@H](CCC(=O)O)C(=O)N1C[C@@H](NC(=O)c2cccc(C(=O)N[C@H]3C[C@@H](C(=O)N[C@@H]4CCCc5ccccc54)N(C(=O)[C@@H](NC(=O)[C@H](C)NC)C(C)(C)C)C3)c2)CC1C(=O)N[C@H](C)c1ccccc1` (stereo partly shown) [Compound 147]: the IC50 came to 0.185 µM.

Still in this assay, the particulars now being: HCC461, HCC461; Tables 15-18; read-out: IC50 (uM) in cell viability assay in HCC461.
In the case of `CN[C@@H](C)C(=O)N[C@@H](CCCCCC[C@H](NC(=O)[C@H](C)NC)C(=O)N1CCC[C@H]1C(=O)NC1c2ccccc2-c2ccccc21)C(=O)N1CCC[C@H]1C(=O)NC1c2ccccc2-c2ccccc21` [Compound P2-6], the 50% inhibitory concentration (IC50) stood at 0.024 µM. On the same count and under the same terms, to `CN[C@@H](C)C(=O)N[C@H](C(=O)N1CCC[C@H]1Cn1nnnc1S(=O)(=O)c1ccc(C)cc1)[C@@H](C)OCC#CC#CCO[C@H](C)[C@H](NC(=O)[C@H](C)NC)C(=O)N1CCC[C@H]1Cn1nnnc1S(=O)(=O)c1ccc(C)cc1` [Compound P2-22] belongs 0.18 µM. On the same count and under the same terms, to `CN[C@@H](C)C(=O)N[C@H](C(=O)N1CCC[C@H]1C(=O)N[C@H](C(=O)N1CCN(C(=O)[C@@H](NC(=O)[C@@H]2CCCN2C(=O)[C@@H](NC(=O)[C@H](C)NC)C(C)(C)C)C2CCCCC2)CC1)C1CCCCC1)C(C)(C)C` [Compound P4-10] (I: H-[NMeA][Tle]P[Chg] / II: H-[NMeA][Tle]P[Chg]; linker I:C-II:C via Piperazine(1,4-diyl)) belongs 0.26 µM; to `CN[C@@H](C)C(=O)N[C@H](C(=O)N1CCC[C@H]1C(=O)N[C@H](C(=O)NCCC#CC#CCCNC(=O)[C@@H](NC(=O)[C@@H]1CCCN1C(=O)[C@@H](NC(=O)[C@H](C)NC)C(C)(C)C)C1CCCCC1)C1CCCCC1)C(C)(C)C` [Compound P4-1], 0.08 µM; to `CN[C@@H](C)C(=O)NC(C(=O)N1CCC[C@H]1C(=O)NC1CCCc2ccccc21)c1ccc(-c2ccc(C(NC(=O)[C@H](C)NC)C(=O)N3CCC[C@H]3C(=O)NC3CCCc4ccccc43)cc2)cc1` (stereo partly shown) [Compound P2-2], 0.098 µM. For the molecule `CN[C@@H](C)C(=O)N[C@H](C(=O)N1CCC[C@H]1C(=O)N[C@@H]1CCCc2ccccc21)c1ccc(OCc2ccccc2COc2ccc([C@H](NC(=O)[C@H](C)NC)C(=O)N3CCC[C@H]3C(=O)N[C@@H]3CCCc4ccccc43)cc2)cc1` [Compound P2-3], the IC50 stood at 0.072 µM.

The same assay, now with this note: HCC461, HCC461 cells, compound alone; read-out: IC50 (uM) in cell viability assay in HCC461.
For the molecule `CN[C@@H](C)C(=O)N[C@H](C(=O)N1C[C@@H](NC(=O)c2cccc(C(=O)N[C@H]3C[C@@H](C(=O)N[C@H](C)c4ccccc4)N(C(=O)[C@@H](NC(=O)[C@H](C)NC)C4CCCCC4)C3)c2)C[C@H]1C(=O)N[C@H](C)c1ccccc1)C1CCCCC1` [Compound P3-77], the IC50 was 0.014 µM. For the molecule `CN[C@@H](CO)C(=O)N[C@H](C(=O)N1C[C@@H](NC(=O)c2cccc(C(=O)N[C@H]3C[C@@H](C(=O)N[C@H](C)c4ccccc4)N(C(=O)[C@@H](NC(=O)[C@H](CO)NC)C(C)C)C3)c2)C[C@H]1C(=O)N[C@H](C)c1ccccc1)C(C)C` [Compound P3-89], the IC50 turned out to be 0.073 µM. Same read-out and setting: to `CN[C@@H](C)C(=O)N[C@H](C(=O)N1C[C@@H](NC(=O)c2nn[nH]c2C(=O)N[C@H]2C[C@@H](C(=O)NC3CCCc4ccccc43)N(C(=O)[C@@H](NC(=O)[C@H](C)NC)C(C)(C)C)C2)CC1C(=O)N[C@@H]1CCCc2ccccc21)C(C)(C)C` (stereo partly shown) [Compound P3-26] belongs 0.058 µM; to `CN[C@@H](C)C(=O)N[C@H](C(=O)N1C[C@@H](NC(=O)[C@H](O)[C@@H](O)C(=O)N[C@H]2C[C@@H](C(=O)NC3c4ccccc4-c4ccccc43)N(C(=O)[C@@H](NC(=O)[C@H](C)NC)C(C)(C)C)C2)C[C@H]1C(=O)NC1c2ccccc2-c2ccccc21)C(C)(C)C` [Compound P3-15], 0.017 µM. Regarding `CN[C@@H](C)C(=O)N[C@H](C(=O)N1C[C@@H](NC(=O)c2cc(N)cc(C(=O)N[C@H]3C[C@@H](C(=O)N[C@H](C)c4ccccc4)N(C(=O)[C@@H](NC(=O)[C@H](C)NC)C4CCCCC4)C3)c2)C[C@H]1C(=O)N[C@H](C)c1ccccc1)C1CCCCC1` [Compound P3-78], the IC50 worked out at 0.049 µM. Take `CN[C@@H](C)C(=O)N[C@H](C(=O)N1C[C@@H](NC(=O)c2cccc(C(=O)N[C@H]3C[C@@H](C(=O)N[C@@H]4CCCc5ccccc54)N(C(=O)[C@@H](NC(=O)[C@H](C)NC)C(C)C)C3)c2)C[C@H]1C(=O)N[C@@H]1CCCc2ccccc21)C(C)C` [Compound P3-55]: the 50% inhibitory concentration (IC50) is 0.017 µM. Still for that read-out and setting: as for `CN[C@@H](C)C(=O)N[C@H](C(=O)N1C[C@@H](NC(=O)c2cc(N)cc(C(=O)N[C@H]3C[C@@H](C(=O)N[C@@H]4CCCc5ccccc54)N(C(=O)[C@@H](NC(=O)[C@H](C)NC)C(C)C)C3)c2)C[C@H]1C(=O)N[C@@H]1CCCc2ccccc21)C(C)C` [Compound P3-56], the figure is 0.091 µM; as for `CN[C@@H](C)C(=O)N[C@H](C(=O)N1C[C@@H](NC(=O)[C@H]2CC[C@H](C(=O)N[C@H]3C[C@@H](C(=O)N[C@@H]4CCCc5ccccc54)N(C(=O)[C@@H](NC(=O)[C@H](C)NC)C(C)(C)C)C3)CC2)C[C@H]1C(=O)N[C@@H]1CCCc2ccccc21)C(C)(C)C` [Compound P3-31], 0.002 µM. Same read-out and setting: as for `C#CC[C@H](NC(=O)[C@H](C)NC)C(=O)N1C[C@@H](NC(=O)c2cnc(C(=O)N[C@H]3C[C@@H](C(=O)N[C@@H]4CCCc5ccccc54)N(C(=O)[C@H](CC#C)NC(=O)[C@H](C)NC)C3)cn2)C[C@H]1C(=O)N[C@@H]1CCCc2ccccc21` [Compound P3-14], the figure is 0.023 µM.

The assay is the same for the next values; noted with them: HCC461; Tables 15-18; read-out: IC50 (uM) in cell viability assay in HCC461.
Consider `CN[C@@H](C)C(=O)N[C@H](C(=O)N1CCC[C@H]1C(=O)N[C@H](CNC(=O)C1CCCCC1C(=O)NC[C@@H](NC(=O)[C@@H]1CCCN1C(=O)[C@@H](NC(=O)[C@H](C)NC)C(C)(C)C)C1CCCCC1)C1CCCCC1)C(C)(C)C` (single isomer, unassigned) [Compound P4-2], for which the half-inhibitory concentration (IC50) was determined as 0.12 µM.

Staying with this assay, now noted: HCC461 cells, compound alone; read-out: IC50 (uM) in cell viability assay in HCC461.
For `CN[C@@H](C)C(=O)N[C@H](C(=O)N1C[C@@H](NC(=O)C2CCCC(C(=O)N[C@H]3C[C@@H](C(=O)NC4CCCc5ccccc54)N(C(=O)[C@@H](NC(=O)[C@H](C)NC)C(C)(C)C)C3)C2)CC1C(=O)N[C@@H]1CCCc2ccccc21)C(C)(C)C` (stereo partly shown) [Compound P3-28], the IC50 is 0.019 µM.
